The source of these data is patent EP4678629A1, “IONIZABLE LIPID MOLECULE, PREPARATION METHOD THEREFOR AND USE THEREOF” (Maxirna (Shanghai) Pharmaceutical Co., Ltd., priority 2023, dated 2024).

For orientation: viability means the share of living cells, or the viability signal relative to a control.

The test system of one series is mice. Kind of series: In vivo transfection with Fluc-mRNA lipid nanoparticle (LNP preparation), live imaging of fluorescence intensity. The note with it: 0.5 mg/kg; for fluorescence intensity: intravenous and intramuscular injection. The method, then: According to the method described in Example II , LNP lipid nanoparticles of Fluc-mRNA (Maxirna FLuc mRNA, 1 mg/mL), SM-102 (CAS number: 2089251-47-6, A.V.T (Shanghai) Pharmaceutical Co., Ltd.), and positive control 1 (US10195156B2, it was prepared according to the method described in the above embodiment, the main difference lay in replacing 2-((3-aminopropyl)amino)ethane-1-ol with 2-((2-aminoethyl)amino)ethane-1-ol, the structure was as shown in FIG. 1) were prepared respectively. Cholesterol (Chol), DSPC, DOPE, and DMG-PEG2000 were purchased from A.V.T (Shanghai) Pharmaceutical Co., Ltd. Mice were randomly selected, and the lipid nanoparticles were injected intravenously and intramuscularly (4 mice per group) at a dosage of 0.5 mg/kg. Tris and Fluc-mRNA were directly injected as controls. After 6 hours, 200 ul of 10 mg/ml D-luciferin potassium salt was respectively injected into each mouse through the tail vein. After 10 minutes, the mice were placed under a live imaging system to observe the total fluorescence intensity of each mouse and take photos for recording. After 24 hours, the mice were placed under the live imaging system to observe the total fluorescence intensity of each mouse and take photos for recording. Table 2: Preparation parameters of each LNP
(§1) LNP lipid nanoparticles of Fluc-mRNA were respectively prepared using the method described in Example II. Mice were randomly selected, and the lipid nanoparticles were injected intramuscularly (2 mice per group) at a dosage of 0.5 mg/kg. Tris was directly injected as a control. After 6 hours, 200 ul of 10 mg/ml D-luciferin potassium salt was respectively injected into each mouse through the tail vein. After 10 minutes, the mice were placed under a live imaging system to observe the total fluorescence intensity of each mouse and take photos for recording. After 24 hours, the mice were placed under the live imaging system to observe the total fluorescence intensity of each mouse and take photos for recording. Table 3: Preparation parameters of each LNP
as §1, with “II .” for “II.”, “(3” for “(2”, “4:” for “3:”

Series [1] can be described thus: Size and polydispersity index (PDI) of the lipid nanoparticle by dynamic light scattering. Conditions: LNP encapsulating eGFP mRNA, ionizable lipid/DOPE/cholesterol/DMG-PEG2000 50/10/48.25/1.25 mol%, N/P 12; for Particle size: in nm (unit assumed). The format is physicochemical. Put shortly:
(§2)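 LNPs were made by microfluidic mixing of ionizable lipid/DOPE/cholesterol/DMG-PEG2000 (50/10/48.25/1.25 mol%) in ethanol with eGFP mRNA in 20 mM citrate pH 6.1, N/P 12, then ultrafiltered into DPBS and 0.2 µm filtered. Size and PDI by DLS at 173° backscatter; encapsulation by Ribogreen.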

Series [2] in a line: Encapsulation efficiency of the lipid nanoparticle (eGFP mRNA) by Ribogreen method. The format is physicochemical. The note with it: LNP encapsulating eGFP mRNA, ionizable lipid/DOPE/cholesterol/DMG-PEG2000 50/10/48.25/1.25 mol%, N/P 12. An outline of the steps:
as §2

Series [3] can be described thus: In vitro transfection of cells with eGFP-mRNA lipid nanoparticle (LNP preparation), fluorescence imaging and flow cytometry. The format is cell-based, mouse. Conditions: mouse, dc2.4 cells, 200 ng of mRNA per well, after 24 hours; read-out: Cell viability, %. An outline of the steps: (§3)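 Mouse bone marrow-derived DC2.4 dendritic cells seeded at 2 × 10^5 cells/well in DMEM with 10% FBS, transfected with eGFP-mRNA LNPs the next day at 37 °C, 5% CO2. After 24 hours, viability, eGFP-positive rate and mean fluorescence intensity read by fluorescence imaging and flow cytometry.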
A general note: A flow cytometer gives signals particle by particle.

The test system of another series is DC2.4 cells. The series is described as above. The format is cell-based, mouse. The note with it: DC2.4 cells, 200 ng of mRNA per well, after 24 hours; for Positive rate, %: eGFP positivity rate; for Cell viability, %: 1440 min. An outline of the steps: as §3
Setting [4] is: Fluc-mRNA LNP of Table 2 (DOPE), intramuscular.
Setting [5] is: Fluc-mRNA LNP of Table 2 (DOPE), 6 and 24 hours.
Where [6] appears, read: Fluc-mRNA LNP of Table 3 (DSPC), intramuscular, 6 and 24 hours.
The mark [7] stands for this setting: Fluc-mRNA LNP of Table 4 (DSPC), intramuscular, 6 and 24 hours.

Each structure is given as a SMILES string.

Consider `CCCCCC/C=C\COC(=O)CCCCCCCN(CCCCCCCC(=O)OC/C=C\CCCCCC)CCCN(CCCCCCCC(=O)OC/C=C\CCCCCC)CCCCCCCC(=O)OC/C=C\CCCCCC` [Example 21, Tetra((Z)-non-2-en-1-yl)8,8',8",8‴-(propane-1,3-diyldi(azanetriyl))tetraoctanoate], for which, in the series with mice (setting [4]), the “expression in the chest and abdomen” value is “much lower than that of SM-102”; the “fluorescence intensity, intramuscular injection administration” value was “still maintain high fluorescence intensity”. Also, the fluorescence intensity entry in the series with mice (setting [5]) was “stronger than that of positive control 1 and comparable to SM-102”.

Turning to `CCCCCCCCCCCOC(=O)CCCCCCCN(CCO)CCCN(CCCCCCCC(=O)OCCCCCCCCCCC)CCCCCCCC(=O)OCCCCCCCCCCC` [Example 1, Diundecyl 8,8'-((3-((2-hydroxyethyl)(8-oxo-8-(undecyloxy)octyl)amino)propyl)azanediyl)dioctanoate], in series [1], the PDI worked out at 0.18 and the Particle size is listed as 59.34. Further, in series [2], the “Encapsulation rate, %” value is reported as 96.32%. Moreover, the viability at 24 h in series [3] is 92%. For the same molecule, in the series with DC2.4 cells, the “Positive rate, %” value was 91.23%. Also, the whole-body expression result with mice (setting [6]) is reported as “even better than SM-102”.

With `CCCCC/C=C\C/C=C\CCCCCCCCOC(=O)CCCN(CCCO)CCCN(CCCC(=O)OCCCCCCCC/C=C\C/C=C\CCCCC)CCCC(=O)OCCCCCCCC/C=C\C/C=C\CCCCC` [Example 81, Di((9Z,12Z)-octadeca-9,12-dien-1-yl)4,4'-((3-((3-hydroxypropyl)(4-(((9Z,12Z)-octadeca-9,12-dien-1-yl)oxo)-4-oxobutyl)amino)propyl)azanediyl)dibutanoate], the Particle size in series [1] amounted to 99.10. The “Encapsulation rate, %” value in series [2] is listed as 99.10%. For the same molecule, in the series on DC2.4 cells, the “Cell viability, %” value was 76.4% and the “Positive rate, %” value is recorded as 93.39%. Also, the whole-body expression entry with mice (setting [6]) is recorded as “even better than SM-102”.

In series [1], `CCCCCCCCCCCOC(=O)CCCCCN(CCO)CCCN(CCCCCC(=O)OCCCCCCCCCCC)CCCCCC(=O)OCCCCCCCCCCC` [Example 11, Diundecyl 6,6'-((3-((2-hydroxyethyl)(6-oxo-6-(undecyloxy)hexyl)amino)propyl)azanediyl)dihexanoate] showed a PDI of 0.17 and a Particle size of 97.96. For the same molecule, the “Encapsulation rate, %” value in series [2] was 90.99%. Moreover, the viability at 24 h in series [3] came to 84.3%. In addition, the “Positive rate, %” value in the series on DC2.4 cells was found to be 95.68%. In addition, in the series with mice (setting [4]), the “fluorescence intensity, intramuscular injection administration” value is “still maintain high fluorescence intensity”. Further, in the series with mice (setting [5]), the fluorescence intensity result was “stronger than that of positive control 1 and comparable to SM-102”.

For `CCCCC/C=C\C/C=C\CCCCCCCCOC(=O)CCCN(CCCO)CCCCN(CCCC(=O)OCCCCCCCC/C=C\C/C=C\CCCCC)CCCC(=O)OCCCCCCCC/C=C\C/C=C\CCCCC` [Example 89], in series [1], the PDI was determined as 0.09 and the Particle size worked out at 96.38. Further, the “Encapsulation rate, %” value in series [2] came to 94.22%. Also, in the series with DC2.4 cells, the “Cell viability, %” value was 94.0% and the “Positive rate, %” value came to 92.26%. Also, in the series with mice (setting [7]), the injection site result was “superior to those of positive control 1 and SM-102”; the whole-body expression entry was “superior to those of positive control 1 and SM-102”.

As for `CCCCCCCCC(CCCCCCCC)OC(=O)CCCCCCCN(CCO)CCCN(CCCCCCCC(=O)OC(CCCCCCCC)CCCCCCCC)CCCCCCCC(=O)OC(CCCCCCCC)CCCCCCCC` [Example 2, Di(heptadecane-9-yl)8,8'-((3-((8-(heptadecane-9-oxy)-8-oxooctyl)(2-hydroxyethyl)amino)propyl)azanediyl)dioctanoate], the PDI in series [1] stood at 0.24. The “Encapsulation rate, %” value in series [2] turned out to be 97.27%. In addition, the viability at 24 h in series [3] turned out to be 82.9%. In addition, in the series with DC2.4 cells, the “Positive rate, %” value amounted to 73.48%.

In turn, `CCCCCCCCCCCOC(=O)CCCN(CCCCO)CCCN(CCCC(=O)OCCCCCCCCCCC)CCCC(=O)OCCCCCCCCCCC` [Example 66, Diundecyl 4,4'-((3-((4-hydroxybutyl)(4-oxo-4-(undecyloxy)butyl)amino)propyl)azanediyl)dibutanoate] showed a PDI in series [1] of 0.14. The “Encapsulation rate, %” value in series [2] is listed as 94.12%. Further, in series [3], the viability at 24 h was found to be 76.7%. In addition, in the series with DC2.4 cells, the “Positive rate, %” value is given as 98.63%.

As to `CCCCCCCCCCOC(=O)CCCN(CCCO)CCCCN(CCCC(=O)OCCCCCCCCCC)CCCC(=O)OCCCCCCCCCC` [Example 86], in series [1], the PDI is listed as 0.13 and the Particle size is given as 88.62. Besides, the “Encapsulation rate, %” value in series [2] turned out to be 94.50%. In series [3], the viability at 24 h stood at 93%. Besides, the “Positive rate, %” value with DC2.4 cells was 94.18%.

For `CCCCCCCCCCCCOC(=O)CCCCCCCN(CCCCO)CCCN(CCCCCCCC(=O)OCCCCCCCCCCCC)CCCCCCCC(=O)OCCCCCCCCCCCC` [Example 52, Didodecyl 8,8'-((3-((8-(dodecyloxy)-8-oxooctyl)(4-hydroxybutyl)amino)propyl)azanediyl)dioctanoate], in series [1], the PDI worked out at 0.17 and the Particle size is 69.63. In series [2], the “Encapsulation rate, %” value is given as 99.18%. Also, the viability at 24 h in series [3] was 82.9%. Also, in the series on DC2.4 cells, the “Positive rate, %” value was determined as 85.37%.

Molecule `CCCCCCCCCCCCCOC(=O)CCCCCN(CCCO)CCCN(CCCCCC(=O)OCCCCCCCCCCCCC)CCCCCC(=O)OCCCCCCCCCCCCC` [Example 30, 6,6'-((3-((3-hydroxypropyl)(6-oxo-6-(tridecyloxy)hexyl)amino)propyl)azadiyl)ditridecyl dihexanoate] showed a PDI in series [1] of 0.09. Also, the “Encapsulation rate, %” value in series [2] was 99.66%. The viability at 24 h in series [3] was 96.9%. For the same molecule, the “Positive rate, %” value in the series on DC2.4 cells was 96.41%.

In series [1], `CCCCCCCCCCCCCOC(=O)CN(CCCCO)CCCN(CC(=O)OCCCCCCCCCCCCC)CC(=O)OCCCCCCCCCCCCC` [Example 78, Ditridecyl 2,2'-((3-((4-hydroxybutyl)(2-oxo-2-(tridecyloxy)ethyl)amino)propyl)azanediyl)diacetate] came in with a PDI of 53.66 and a Particle size of 99.86. In addition, the “Encapsulation rate, %” value in series [2] is listed as 99.86%. Besides, in series [3], the viability at 24 h is 91.7%. Besides, the “Positive rate, %” value in the series on DC2.4 cells is on record as 81.35%.

In the case of `CCCCCCCCCCCOC(=O)CCCCCCN(CCCO)CCCN(CCCCCCC(=O)OCCCCCCCCCCC)CCCCCCC(=O)OCCCCCCCCCCC` [Example 36], in series [1], the PDI is reported as 0.16 and the Particle size worked out at 89.30. In series [2], the “Encapsulation rate, %” value amounted to 99.39%. Also, the viability at 24 h in series [3] was found to be 94.2%. Also, the “Positive rate, %” value with DC2.4 cells worked out at 93.6%.

As to `CCCCCCCCCCCCCCOC(=O)CCCCCCN(CCCO)CCCN(CCCCCCC(=O)OCCCCCCCCCCCCCC)CCCCCCC(=O)OCCCCCCCCCCCCCC` [Example 57, Ditetradecyl 7,7'-((3-((3-hydroxypropyl)(7-oxo-7-(tetradecyloxy)heptyl)amino)propyl)azanediyl)diheptanoate], in series [1], the PDI amounted to 0.17 and the Particle size amounted to 68.32. Besides, in series [2], the “Encapsulation rate, %” value is recorded as 99.36%. In series [3], the viability at 24 h was found to be 76.9%. Further, the “Positive rate, %” value in the series on DC2.4 cells turned out to be 97.36%.
